Experimental data reported in patent US8546608B2, “Proteasome inhibitors and methods of using the same” (Cephalon, Inc., priority 2003, dated 2013).

Key:
[1] = biological target: T1, 20S Human Erythrocyte Proteasome (HEP) (Homo sapiens, UniProt P20618+P28074); assay: Chymotrypsin-like activity of 20S Human Erythrocyte Proteasome (HEP), IC50 determination; format: biochemical; details: assay of Example C, inhibition of HEP
T1 construct: 20S Human Erythrocyte Proteasome (HEP), purchased from Immatics Biotechnologies Inc; purchased Immatics Biotechnologies Inc., Tübingen, Germany; host or cells: human erythrocytes (natural source)
In short: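 20S proteasome at 0.2 μg/mL (about 0.6 nM catalytic sites) in 20 mM Tris with 0.04% SDS, preincubated 15 min at 37° C with inhibitor before Suc-LLVY-AMC (100 μM final). AMC fluorescence read in the linear range; triplicates, IC50 from concentration series.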

[2] = biological target: T2, proteasome in Molt-4 cells (human leukemia) (Homo sapiens, UniProt P20618+P28074); format: cell-based; details: assay of Example E, inhibition of MOLT4; read-out: MOLT4 (EC50)
T2 sequence (P28074 60-263): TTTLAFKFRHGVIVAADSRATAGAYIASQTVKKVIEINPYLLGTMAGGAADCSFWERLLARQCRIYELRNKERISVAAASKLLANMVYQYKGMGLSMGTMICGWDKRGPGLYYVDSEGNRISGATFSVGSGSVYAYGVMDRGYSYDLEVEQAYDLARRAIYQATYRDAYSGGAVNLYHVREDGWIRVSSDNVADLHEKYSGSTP
T2 sequence (P20618 29-241): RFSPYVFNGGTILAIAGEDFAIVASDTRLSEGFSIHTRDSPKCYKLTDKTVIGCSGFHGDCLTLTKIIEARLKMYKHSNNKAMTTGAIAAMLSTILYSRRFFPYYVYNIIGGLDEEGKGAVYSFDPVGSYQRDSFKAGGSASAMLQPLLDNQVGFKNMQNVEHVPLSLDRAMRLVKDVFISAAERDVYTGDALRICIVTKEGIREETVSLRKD
In short: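 Intact Molt-4 cells (6×10^6 cells/mL) in HEPES-buffered saline were preincubated with inhibitor 15 min at 37 °C, then given cell-permeable MeOSuc-FLF-AFC at 25 μM final.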

Molecule	IC50 [1] [nM]	EC50 [2] [nM]
CC(C)C[C@H](NC(=O)[C@H](CCCNC(=N)N[N+](=O)[O-])NC(=O)CCCC(=O)c1ccccc1)B1O[C@@H]2C[C@@H]3C[C@@H](C3(C)C)[C@]2(C)O1 [D.3.105, 5-Oxo-5-phenyl-pentanamide,N-[(1S)-1-[[[(1R)-1-[(3aS,4S,6S,7aR)-hexahydro-3a,5,5-trimethyl-4,6-methano-l,3,2-benzodioxaborol-2-yl]-3-methylbutyl]amino]carbonyl]-4-[[imino(nitroamino)methyl]amino]butyl]]	< 10	200 to 2000
CC(C)C[C@H](NC(=O)[C@H](CCCNC(=N)N[N+](=O)[O-])NC(=O)CCS(=O)(=O)c1ccccc1)B(O)O [E.2.70, Boronic acid, [(1R)-1-[[(2S)-5-[[imino(nitroamino)methyl]amino]-2-[[3-(benzenesulfonyl)propanoyl]amino]-1-oxopentyl]amino]-3-methylbutyl]]	< 10	> 10000
CC(C)C[C@H](NC(=O)[C@H](CCCNC(=N)N[N+](=O)[O-])NC(=O)Cc1ccccc1Cl)B1O[C@@H]2C[C@@H]3C[C@@H](C3(C)C)[C@]2(C)O1 [D.3.29, 2-(2-Chlorophenyl)acetamide,N-[(1S)-1-[[[(1R)-1-[(3aS,4S,6S,7aR)-hexahydro-3a,5,5-trimethyl-4,6-methano-1,3,2-benzodioxaborol-2-yl]-3-methylbutyl]amino]carbonyl]-4-[[imino(nitroamino)methyl]amino]butyl]]	< 10	< 200
CCCCC(CC)CCC(=O)N[C@@H](CCCNC(=N)N[N+](=O)[O-])C(=O)N[C@@H](CC(C)C)B(O)O (mixture of isomers) [E.2.23, Boronic acid, [(1R)-1-[[(2S)-5-[[imino(nitroamino)methyl]amino]-2-[((RS)-4-ethyloctanoyl)amino]-1-oxopentyl]amino]-3-methylbutyl]]	< 10	200 to 2000
CC(C)C[C@H](NC(=O)[C@H](CCCNC(=N)N[N+](=O)[O-])NC(=O)C1(c2ccccc2)CCCC1)B(O)O [E.2.3, Boronic acid, [(1R)-1-[[(2S)-5-[[imino(nitroamino)methyl]amino]-2-[(1-phenylcyclopentanecarbnyl)amino]-1-oxopentyl]amino]-3-methylbutyl]]	< 10	2000 to 10000
CC(C)C[C@H](NC(=O)[C@H](CCCNC(=N)N[N+](=O)[O-])NC(=O)CCCc1ccccc1)B1O[C@@H]2C[C@@H]3C[C@@H](C3(C)C)[C@]2(C)O1 [D.3.12, 4-Phenylbutanamide,N-[(1S)-1-[[[(1R)-1-[(3aS,4S,6S,7aR)-hexahydro-3a,5,5-trimethyl-4,6-methano-1,3,2-benzodioxaborol-2-yl]-3-methylbutyl]amino]carbonyl]-4-[[imino(nitroamino)methyl]amino]butyl]]	< 10	< 200
Boronic acid, [(1R)-1-[[(2S)-5- [[imino(nitroamino)methyl]amino]-2-[[(thiophene- 2-sulfonyl)acetyl]amino]-1-oxopentyl]amino]-3- methylbutyl] [E.2.69]	< 10	> 10000
COc1ccc(CCCC(=O)N[C@@H](CCCNC(=N)N[N+](=O)[O-])C(=O)N[C@@H](CC(C)C)B2O[C@@H]3C[C@@H]4C[C@@H](C4(C)C)[C@]3(C)O2)cc1 [D.3.50]	< 10	< 200
CCCCCCCCCCCNC(=O)N[C@@H](CCCNC(=N)N[N+](=O)[O-])C(=O)N[C@@H](CC(C)C)B1O[C@@H]2C[C@@H]3C[C@@H](C3(C)C)[C@]2(C)O1 [D.6.5, N-[(1S)-1-[[[(1R)-1-[(3aS,4S,6S,7aR)-hexahydro-3a,5,5-trimethyl-4,6-methano-1,3,2-benzodioxaborol-2-yl]-3-methylbutyl]amino]carbonyl]-4-[[imino(nitroamino)methyl]amino]butyl]-N′-undecylurea]	< 10	< 200
Cc1ccc(OCC(=O)N[C@H](C(=O)N[C@@H](CC(C)C)B2O[C@@H]3C[C@@H]4C[C@@H](C4(C)C)[C@]3(C)O2)[C@@H](C)O)cc1 [D.3.177, (4-Methylphenoxy)acetamide,N-[(1S,2R)-1-[[[(1R)-1-[(3aS,4S,6S,7aR)-hexahydro-3a,5,5-trimethyl-4,6-methano-1,3,2-benzodioxaborol-2-yl]-3-methylbutyl]amino]carbonyl]-2-hydroxypropyl]]	< 10	< 200
CC(C)CCCC(=O)N[C@@H](CCCNC(=N)N[N+](=O)[O-])C(=O)N[C@@H](CC(C)C)B(O)O [E.2.26, Boronic acid, [(1R)-1-[[(2S)-5-[[imino(nitroamino)methyl]amino]-2-[(5-methylhexanoyl)amino]-1-oxopentyl]amino]-3-methylbutyl]]	< 10	> 10000
CC(C)C[C@H](NC(=O)[C@@H](NC(=O)c1cnccn1)[C@@H](C)O)B(O)O [E.4.1, Boronic acid, [(1R)-1-[[(2S,3R)-3-hydroxy-2-[(2-pyrazinecarbonyl)amino]-1-oxobutyl]amino]-3-methylbutyl]]	< 100	200 to 2000
CCCCCCCCCC(=O)N[C@@H](CNC(=O)c1ccc(C)cc1)C(=O)N[C@@H](CC(C)C)B1O[C@@H]2C[C@@H]3C[C@@H](C3(C)C)[C@]2(C)O1 [D.9, Decanamide, N-[(1S)-1-[[[(1R)-1-[(3aS,4S,6S,7aR)-hexahydro-3a,5,5-trimethyl-4,6-methano-1,3,2-benzodioxaborol-2-yl]-3-methylbutyl]amino]carbonyl]-2-[(4-methylbenzoyl)amino]ethyl]-]	< 10	< 200
CCCCc1ccc(C(=O)N[C@@H](CNC(=O)c2cccnc2)C(=O)N[C@@H](CC(C)C)B(O)O)cc1 [E.5.18, Boronic acid, [(1R)-1-[[(2S)-3-(nicotinoylamino)-2-[(4-butylbenzoylamino)]-1-oxopropyl]amino]-3-methylbutyl]]	< 10	< 200
CC(C)C[C@H](NC(=O)[C@H](CCCNC(=N)N[N+](=O)[O-])NC(=O)C1CC2CCC1C2)B(O)O (stereo partly drawn) [E.2.25, Boronic acid, [(1R)-1-[[(2S)-5-[[imino(nitroamino)methyl]amino]-2-[(bicyclo[2.2.1]heptane-2-carbonyl)amino]-1-oxopentyl]amino]-3-methylbutyl]]	< 10	2000 to 10000
CCCCCCCOc1ccc(NC(=O)N[C@@H](CCCNC(=N)N[N+](=O)[O-])C(=O)N[C@@H](CC(C)C)B2O[C@@H]3C[C@@H]4C[C@@H](C4(C)C)[C@]3(C)O2)cc1 [D.6.9, N-[(1S)-1-[[[(1R)-1-[(3aS,4S,6S,7aR)-hexahydro-3a,5,5-trimethyl-4,6-methano-1,3,2-benzodioxaborol-2-yl]-3-methylbutyl]amino]carbonyl]-4-[[imino(nitroamino)methyl]amino]butyl]-N′-(4-heptyloxylphenyl) urea]	< 10	< 200
CC(C)C[C@H](NC(=O)[C@H](CCCNC(=N)N[N+](=O)[O-])NC(=O)C1CCCCC1C)B(O)O (stereo partly drawn) [E.2.20, Boronic acid, [(1R)-1-[[(2S)-5-[[imino(nitroamino)methyl]amino]-2-[(2-methylcyclohexanecarbonyl)amino]-1-oxopentyl]amino]-3-methylbutyl]]	< 10	2000 to 10000
CC(C)C[C@H](NC(=O)[C@H](CCCNC(=N)N[N+](=O)[O-])NC(=O)CC1C=CCC1)B1O[C@@H]2C[C@@H]3C[C@@H](C3(C)C)[C@]2(C)O1 (mixture of isomers) [D.3.59]	< 10	200 to 2000
CC(C)C[C@H](NC(=O)[C@@H](NC(=O)c1ccc(-c2ccccc2)cc1)[C@@H](C)O)B1O[C@@H]2C[C@@H]3C[C@@H](C3(C)C)[C@]2(C)O1 [D.8.6, 4-Phenylbenzamide, N-[(1S,2R)-1-[[[(1R)-1-[(3aS,4S,6S,7aR)-hexahydro-3a,5,5-trimethyl-4,6-methano-1,3,2-benzodioxaborol-2-yl]-3-methylbutyl]amino]carbonyl]-2-hydroxypropyl]]	< 10	< 200
CCCCCCCCCC(=O)N[C@@H](CNC(=O)Cc1ccc(OC)c(OC)c1)C(=O)N[C@@H](CC(C)C)B1O[C@@H]2C[C@@H]3C[C@@H](C3(C)C)[C@]2(C)O1 [D.12, 2-S-Decanoylamino-3-(3,4-dimethoxyphenylacetamido)propionamide, N-[(1S)-1-[[(1R)-1-[(3aS,4S,6S,7aR)-hexahydro-3a,5,5-trimethyl-4,6-methano-1,3,2-benzodioxaborol-2-yl]-3-methylbutyl]amino]carbonyl]]	< 10	< 200
CCS(=O)(=O)NCCCCCC(=O)N[C@@H](CCCNC(=N)N[N+](=O)[O-])C(=O)N[C@@H](CC(C)C)B1O[C@@H]2C[C@@H]3C[C@@H](C3(C)C)[C@]2(C)O1 [D.1.14, 6-(Ethanesulfonylamino)hexanamide,N-[(1S)-1-[[[(1R)-1-[(3aS,4S,6S,7aR)-hexahydro-3a,5,5-trimethyl-4,6-methano-1,3,2-benzodioxaborol-2-yl]-3-methylbutyl]amino]carbonyl]-4-[[imino(nitroamino)methyl]amino]butyl]]	< 100	> 10000
CCCOc1ccc(C(=O)N[C@H](C(=O)N[C@@H](CC(C)C)B(O)O)[C@@H](C)O)cc1 [E.3.8]	< 10	< 200
